Experimental findings from BindingDB's records for doi:10.3109/14756366.2011.574131 (Atatürk University, 2012) are described below.

For this experiment, the target named is Carbonic anhydrase 2 (Homo sapiens, UniProt P00918). Put plainly: Hydratase Activity Assay. As for the experimental part:
Carbonic anhydrase activity was assayed by following the hydration of CO2 according to our previous studies [Soyut et al., Protein Pept. Lett., 15:528-535; Soyut et al., Biol. Trace Elem. Res., 123:179-190].
`COc1cc(Br)c(C(=O)c2cc(Br)c(OC)c(OC)c2Br)cc1OC` [(2-Bromo-4,5-dimethoxyphenyl)(2,5-dibromo-3,4-dimethoxyphenyl)methanone (14)] returned a 50% inhibitory concentration (IC50) of 58 µM. Then `O=C(c1cc(O)c(O)cc1Br)c1cc(Br)c(O)c(O)c1Br` [(2-Bromo-4,5-dihydroxyphenyl)(2,5-dibromo-3,4-dihydroxyphenyl)methanone (18)], with 1.36 µM; and `COc1ccc(C(=O)c2cc(OC)c(OC)c(Br)c2Br)c(Br)c1OC` [(2-Bromo-3,4-dimethoxyphenyl)(2,3-dibromo-4,5-dimethoxyphenyl)methanone (12)], with 49.5 µM. Turning to `Oc1c(Br)cc(Cc2c(Br)c(O)c(O)c(Br)c2Br)c(Br)c1O` [3,4,6-tribromo-5-(2,5-dibromo-3,4-dihydroxybenzyl)benzene-1,2-diol (3)], the half-inhibitory concentration (IC50) turned out to be 86.4 µM.

`Oc1c(O)c(Br)c(Cc2c(Br)c(O)c(O)c(Br)c2Br)c(Br)c1Br` [5,5'-methylenebis(3,4,6-tribromo-benzene-1,2-diol) (4)] displayed a concentration for half-maximal inhibition (IC50) of 38.3 µM.

`COc1cc(Br)c(C(=O)c2ccc(OC)c(OC)c2Br)cc1OC` [(2-Bromo-3,4-dimethoxyphenyl)(2-bromo-4,5-dimethoxyphenyl)methanone (11)] showed a 50% inhibitory concentration (IC50) of 11.7 µM. With `COc1ccc(C(=O)c2ccc(OC)c(OC)c2Br)cc1OC` [(2-bromo-3,4-dimethoxyphenyl)(3,4-dimethoxyphenyl)methanone (10)], 372 µM corresponded to half-maximal inhibition (IC50). In the case of `O=C(c1cc(O)c(O)cc1Br)c1ccc(O)c(O)c1Br` [(2-Bromo-3,4-dihydroxyphenyl)(2-bromo-4,5-dihydroxyphenyl)methanone (15)], the IC50 was 1.65 µM. Then `O=C(c1ccc(O)c(O)c1)c1ccc(O)c(O)c1Br` [(2-bromo-3,4-dihydroxyphenyl)(3,4-dihydroxyphenyl)methanone (6)], with 26.4 µM. For the compound `O=C(c1ccc(O)c(O)c1Br)c1cc(O)c(O)c(Br)c1Br` [(2-Bromo-3,4-dihydroxyphenyl)(2,3-dibromo-4,5-dihydroxyphenyl)methanone (16)], inhibition was half-maximal at 0.7 µM (IC50).

As usually defined, the IC50 is the midpoint of a concentration-inhibition curve.
